Reference: US20210393549A1, “New use of R-enantiomer of adrenergic beta 2 receptor agonists for treatment of inflammatory bowel disease and its extra intestinal manifestations” (priority 2018, published 2021)
Entries after “also recorded” stand apart in the source; their conditions may differ. Like-named read-outs stand apart in the source and are kept apart here.

Tests used:
[1] = test system: DSS induced acute colitis; settings: for colon histology (H&E), in words: Example 1, compared with untreated DSS mice; for Hist score (histological score): epithelium 0-4 plus infiltration 0-4; for Hist score (histological score) / Col Length (colon length): tenth day; for Hist score (histological score) / FOB (fecal occult blood) / Weight / DAI (disease active index) / Col Length (colon length): 1 mg/kg (R-B, S-B 10 mg/kg; RS-C 2 mg/kg); for Hist score (histological score) / FOB (fecal occult blood) / Weight / Col Length (colon length): mean ± SD; for FOB (fecal occult blood): grade 0, 2, 4; for FOB (fecal occult blood) / Weight / Col Length (colon length): i.g. daily 8 days; for DAI (disease active index): score 0 to 12, i.g. daily 8 days from 2nd day of DSS, n=5
Source text: In one embodiment, IBD was induced in mice by add DSS into drink water for 7 days. […] (Cooper, S. et al., Clinic pathologic study of dextran sulfate sodium experimental murine colitis, Laboratory Investigation, vol. 69, no. 2, p. 238-249, 1993)
The mice were scarified at day 10th for anatomy and histology evaluations. […] Each of the above histological features was scored individually and added together which is then collectively expressed as “histological score”, for quantitative evaluation (Cooper, S. et al., above).
Male C57BL mice (8-10 weeks, 18-20 g) were grouped into control (drinking water only), DSS and DSS plus treatment groups (n=5). Acute colitis was induced by feeding mice with 2% (w/v) dextran sulfate sodium (DSS) (molecular mass 36-50 kDa) added to the drinking water given ad libitum for 7 days. At the end of seventh day, DSS was removed and animals received only drinking water for 2 days. The animals were euthanized for anatomical and histological examination at the tenth day after DSS ingestion.
R-salbutamol (R-S) (1 mg/kg, S-salbutamol (S-S) (1 mg/kg), R-terbutaline (R-T) (1 mg/kg), S-terbutaline (S-T) (1 mg/kg), R-bambuterol (10 mg/kg), S-bambuterol (S-B) (10 mg/kg), R-clenbuterol (R-C) (1 mg/kg), RS-clenbuterol (RS-C) (2 mg/kg) were administered i.g. daily, starting from the 2nd day of DSS induction for consecutive 8 days. Dexamethasone (Dex), 1 mg/kg) was used as a reference drug.
Evaluation of disease symptoms and histological changes Disease activity index (DAI): Animals were monitored daily for weight, water/food consumption, morbidity, stool consistency and fecal blood. […] The colon length was recorded as an indicator of inflammation. The entire colon was cut open longitudinally and gently flushed with sterile phosphate-buffered saline (PBS) to remove any traces of feces for pathology preparation. Colon segments were fixed in 10% neutral buffered formalin. Tissues were embedded in paraffin, sectioned, mounted on slides. H&E-stained paraffin section images were acquired. Pathological evaluation was conducted in a blinded manner.
Histological Score: the scores were given as follows: epithelium, 0=normal morphology, 1=loss of goblet cells, 2=loss of goblet cells in large areas, 3=loss of crypts, and 4=loss of crypts in large areas; and inflammation cells infiltration, 0=no infiltrate, 1=infiltrate around the crypt basis, 2=infiltrate reaching the muscularis mucosae, 3=extensive infiltration reaching the muscularis mucosae and thickening of the mucosa with abundant edema, and 4=infiltration of the submucosa. Data were presented as mean±the standard deviation (SD).

[2] = test system: TNBS-induced colitis; assay: TNBS-induced colitis (model for Crohn's disease); format: in vivo, Male mice
Source text: Male mice colitis was induced by rectal co-administration of ethanol and TNBS (Trinitrobenzenesulfonic acid). Severe colitis in mice that was characterized by weight loss and diarrhea. Histologically there were loss of normal structures, visible discrete epithelioid granuloma, multiple erosive lesions, massive transmural inflammation infiltration of lymphocytes, and the loss of goblet cells. […] There was significant alleviation of lesions, few inflammatory infiltration with growing crypts and recovery mucosa epithelia along the column. […] In addition, in TNBS treated colitis mice, there were perianal symptoms: erythema, abscesses and ulcers found in some mice, which may lead to perianal fissures or fistulas. […] The therapeutically effects of R-salbuterol, R-clenbuterol and R-bambuterol on the symptoms in TNBS induced Crohn's disease has never been reported in prior art.

[3] = test system: IMQ-induced Psoriasis-Like Skin lesions; assay: IMQ-induced psoriasis-like skin lesions; format: in vivo, mice; settings: dorsal skin, IMQ-induced psoriasis mice
Protocol: Mice were divided into control, psoriasis and psoriasis plus treatment groups, (n=8 in each group). Psoriasis were induced by topical application of imiquimod cream (62.5 mg) on shaved dorsal skin for seven consecutive days. Vaseline was used in control group. There were four treatment groups: three doses of R-salbutamol (R-Sal) (0.5 mg, 1 mg, 2 mg/kg) and Dexamethasone (1 mg/kg) as positive control. All the treatments and same volume of saline (in control group) were administered orally. In some experiment, R-bambuterol (long-last beta2 agonist) was used as an additional treatment group (n=3). Psoriasis Area Severity Index were used for evaluation. Each of the scores for erythema, scaling and skin thickness were measured separately and then group together as a calculative score. (FIG. 2)

[4] = test system: DSS induced sub-acute colitis; format: in vivo; set-up: DAI (disease active index) / FOB (fecal occult blood) / Hist score (histological score): scale not given here; Weight / Col Length (colon length): unit not given here
Source text: This invention also disclosed the used of R-salbutamol for treatment of sub acute or chronic phases of IBD. In one embodiment, IBD was induced by DSS as mentioned above, along with the treatment of R-salbutamol, at day 7th, DSS was removed and replaced with drinking water for additional 2 weeks. The disease active index (DAI) of mice was examined and evaluated periodically. The mice were scarified for pathological and histological evaluations at day of 23rd. In DSS induce IBD mice, there were significant loss of weight and fecal occult blood at day 14th and 22nd. The overall condition of colitis was severe although there was slightly improvement comparing the day 7th. The colon-rector length was significant shortened, and histological score were significant higher from control. In mice with DSS induced colitis, there were significant mononuclear leucocytes infiltration, few newly grew crypts with architectural disarray, denegation of epithelia, mucosa aberrant. There was also deep mucosal lymphocytosis, destruction of lamina propria and sometimes, transmural inflammation.
Same as example 1, except • 1), Three weeks' study with one week treatment.
DSS and all the treatment was removed and replaced with drinking water at the end of 1st week. Mice were given drink water and food ad libitum for additional 2 weeks.

[5] = test system: knee joints (articular cartilage, meniscus); assay: Damage of knee joints in DSS induced IBD mice; format: in vivo; settings: compared with untreated DSS mice
Source text: In one embodiment, in DSS induced IBD mice, there was also a damage of knee joints. The articular cartilage structure became thinner and partially destroyed. The chondrocytes were degenerated, decreased and clustered. The meniscuses were damaged and lost its structural integrity. In X-ray, the layer of articular cartilage was thinner and bone structure was decreased. […] The articular cartilage and bone structure increased toward normal.

[6] = test system: DSS induced sub-acute colitis; assay: Prolonged (two weeks) treatment in DSS induced sub-acute colitis; format: in vivo, mice; settings: evaluation at 23rd day, salbutamol 1 mg/kg, bambuterol 10 mg/kg
Source text: Same as example 2, except. 1), Two Weeks Treatment within a Three Weeks of Study
DSS was removed from drinking water at the end of 1st week. The treatments were started at 1st day for consecutive 14 days (2 weeks). Only drinking water given for the 3rd week. The evaluation and examination were made at 23rd day as did in example 1.

[7] = test system: hemorrhoid inflammation symptoms; assay: Hemorrhoid inflammation symptoms, oral or topical; format: in vivo; settings: given either orally or topically
Source text: These perianal pathological changes somewhat similar to hemorrhoid inflammation symptoms. […] This new used of beta2 agonists in treatment of hemorrhoid inflammation symptoms has never been disclosed in prior art.

[8] = test system: acne, maliaria, hives and eczema; assay: Topical use on acne, maliaria, hives and eczema; format: in vivo
[9] = test system: psoriasis and eczema; assay: Oral administration in rats, psoriasis and eczema; format: in vivo
[10] = one week treatment, evaluation at 23rd day, R-S, S-S 1 mg/kg, R-B, S-B 10 mg/kg
[11] = sub-acute or chronic DSS colitis, compared with untreated DSS mice

| SMILES | colon histology (H&E), in words [1] | Hist score (histological score) [1] | FOB (fecal occult blood) [1] | Weight [1] | DAI (disease active index) [1] | Col Length (colon length) [1] | DAI, in words [4, 11] | histological index / histological score, in words [4, 11] | hemorrhoid inflammation symptoms [7] | symptoms of acne, maliaria, hives and eczema [8] | psoriasis and eczema [9] | also measured |
| --- | --- | --- | --- | --- | --- | --- | --- | --- | --- | --- | --- | --- |
| CN(C)C(=O)Oc1cc(OC(=O)N(C)C)cc([C@@H](O)CNC(C)(C)C)c1 [R-B, R-bambuterol] | greatly improved | 5 ± 0.5 | 1 ± 0.5 | 92 ± 3.3 | 6 | 7.2 ± 0.2^ | significantly improved | significantly improved; also recorded: significantly ameliorated | significantly alleviated | – | – | perianal manifestations (erythema, abscesses, ulcers) ([2]; TNBS treated mice): significantly alleviated; histology of psoriasis skin lesions (HE) [3]: mostly recovered; Col Length (colon length) [4, 10]: 7.9 ± 0.3; DAI (disease active index) [4, 10]: 6; FOB (fecal occult blood) [4, 10]: 1.1 ± 0.5; Hist score (histological score) [4, 10]: 4 ± 1; Weight [4, 10]: 112 ± 0.6; fecal occult blood, in words ([4]; sub-acute or chronic DSS colitis, day 14th and 22nd, compared with untreated DSS mice): significantly reduced; damage of articular cartilage, meniscus and bone structure of knee joints [5]: significantly ameliorated; DAI, in words [6]: return toward normal; histological score, in words [6]: return toward normal |
| CC(C)(C)NC[C@H](O)c1cc(Cl)c(N)c(Cl)c1 [R-C, R-clenbuterol] | greatly improved | 4.5 ± 0.5^ | 2 ± 0.5 | 89 ± 2.0 | 5 | 7 ± 0.7 | significantly improved | significantly improved | significantly alleviated | significantly alleviated | significantly ameliorate | submucosa fibrosis and narrowing of intestinal lumen ([2]; TNBS treated mice): not seen; weight loss, diarrhea, colon length versus normal control mice ([2]; oral administration): No significant different; disease condition of TNBS colitis, in words ([2]; oral administration (R-enantiomers)): great ameliorated |
| CC(C)(C)NC[C@H](O)c1cc(O)cc(O)c1 [R-T, R-terbutaline] | greatly improved | 6.0 ± 1^ | 2 ± 0 | 88 ± 1.7 | 8 | 6.6 ± 0.3 | significantly improved | significantly improved | – | significantly alleviated | significantly ameliorate | – |
